“And” between values parts separate entries of the source, which are not always exact repeats. Identical values can stand only once. Toxic doses and inconclusive results are not listed.
Tested on: BDF1 mice, B16 melanoma ip, median survival T/C
Assay: NCI In Vivo Anticancer Drug Screen. Data for tumor model B16 Melanoma (intraperitoneal) in B6D2F1 (BDF1) mice
Settings: endpoint: median survival time, higher = longer survival
Summary of the method: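 Antitumor activity is assessed in mice bearing a transplanted tumor, with survival or tumor size compared against vehicle-dosed controls and expressed as T/C.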

[1] = dose: 100.0 mg/kg/injection, schedule: Q01DX009 (ip), vehicle: saline
[2] = dose: 25.0 mg/kg/injection, schedule: Q01DX009 (ip), vehicle: saline with Tween-80
[3] = dose: 50.0 mg/kg/injection, schedule: Q01DX009 (ip), vehicle: saline with Tween-80
[4] = dose: 100.0 mg/kg/injection, schedule: Q01DX009 (ip), vehicle: saline with Tween-80
[5] = dose: 400.0 mg/kg/injection, schedule: Q04DX003 (ip), vehicle: saline with Tween-80
[6] = dose: 100.0 mg/kg/injection, schedule: Q01DX009 (ip), vehicle: Klucel (hydroxypropylcellulose) (HPC)
[7] = dose: 200.0 mg/kg/injection, schedule: Q01DX009 (ip), vehicle: Klucel (hydroxypropylcellulose) (HPC)
[8] = dose: 25.0 mg/kg/injection, schedule: Q01DX009 (ip), vehicle: Klucel (hydroxypropylcellulose) (HPC)
[9] = dose: 50.0 mg/kg/injection, schedule: Q01DX009 (ip), vehicle: Klucel (hydroxypropylcellulose) (HPC)
[10] = dose: 400.0 mg/kg/injection, schedule: Q01DX009 (ip), vehicle: saline with Tween-80
[11] = dose: 1.56 mg/kg/injection, schedule: Q01DX009 (ip), vehicle: saline with Tween-80
[12] = dose: 3.12 mg/kg/injection, schedule: Q01DX009 (ip), vehicle: saline with Tween-80
[13] = dose: 6.25 mg/kg/injection, schedule: Q01DX009 (ip), vehicle: saline with Tween-80
[14] = dose: 12.5 mg/kg/injection, schedule: Q01DX009 (ip), vehicle: Klucel (hydroxypropylcellulose) (HPC)
[15] = dose: 200.0 mg/kg/injection, schedule: Q01DX009 (ip), vehicle: saline with Tween-80

`Cc1cc(=O)[nH]c2c(C)cc(-c3cc(C)c4[nH]c(=O)cc(C)c4c3)cc12` was tested, and the T/C [1] was 102 % of control, the T/C (dose: 200.0 mg/kg/injection, schedule: Q01DX009 (ip), vehicle: saline) was 108 % of control and the T/C (dose: 400.0 mg/kg/injection, schedule: Q01DX009 (ip), vehicle: saline) was 105 % of control.
`NCCCCS(=O)(=O)Nc1ccc(Nc2c3ccccc3nc3cc([N+](=O)[O-])ccc23)cc1` was tested, and the T/C (dose: 50.0 mg/kg/injection, schedule: Q01DX001 (ip), vehicle: saline sonified) was 97 % of control, the T/C (dose: 100.0 mg/kg/injection, schedule: Q01DX001 (ip), vehicle: saline sonified) was 105 % of control and the T/C (dose: 200.0 mg/kg/injection, schedule: Q01DX001 (ip), vehicle: saline sonified) was 113 % of control.
For `O=CC(NC(=O)N(CCF)N=O)C(O)C(O)C(O)CO` (stereo unspecified), the T/C (dose: 3.12 mg/kg/injection, schedule: Q01DX001 (ip), vehicle: saline) was 100 % of control, the T/C (dose: 25.0 mg/kg/injection, schedule: Q01DX001 (ip), vehicle: saline) was 171 % of control and the T/C (dose: 50.0 mg/kg/injection, schedule: Q01DX001 (ip), vehicle: saline) was 189 % of control. The T/C (dose: 100.0 mg/kg/injection, schedule: Q01DX001 (ip), vehicle: saline) was 231 % of control.
In the case of `O=c1[nH]c2cc(Cl)ccc2c(CCl)c1Cl`, the T/C [2] was 88 % of control and 95 % of control, the T/C [3] was 88 % of control and 95 % of control and the T/C [4] was 93 % of control and 100 % of control.
For `CS(=O)(=O)OCCN(CCOS(C)(=O)=O)c1ccc(/C=N/Nc2ncnc3nc[nH]c23)cc1`, the T/C [2] was 115 % of control, the T/C [3] was 110 % of control and the T/C [4] was 105 % of control and 113 % of control. The T/C [5] was 91 % of control and 121 % of control.
In the case of `CCC(=O)c1ccccc1N`, the T/C [6] was 97 % of control and the T/C [7] was 98 % of control.
With `Cc1cccc(C(=O)CC(O)(C(F)(F)F)C(F)(F)F)n1` the T/C (dose: 100.0 mg/kg/injection, schedule: Q04DX003 (ip), vehicle: saline with Tween-80) was 110 % of control, the T/C (dose: 200.0 mg/kg/injection, schedule: Q04DX003 (ip), vehicle: saline with Tween-80) was 100 % of control and the T/C [5] was 100 % of control.
For `CC(C)CCCCCCCCCCCCC(=O)NCC(=O)NC1C(O)C(O)C(Nc2ncnc3nc[nH]c23)OC1C(O)CO` (stereo unspecified), the T/C (dose: 0.25 mg/kg/injection, schedule: Q01DX009 (ip), vehicle: Klucel (hydroxypropylcellulose) (HPC)) was 114 % of control, the T/C (dose: 1.0 mg/kg/injection, schedule: Q01DX009 (ip), vehicle: saline) was 151 % of control and the T/C (dose: 62.5 micrograms/kg/injection, schedule: Q01DX009 (ip), vehicle: saline) was 98 % of control. The T/C (dose: 125.0 micrograms/kg/injection, schedule: Q01DX009 (ip), vehicle: saline) was 98 % of control, the T/C (dose: 250.0 micrograms/kg/injection, schedule: Q01DX009 (ip), vehicle: saline) was 98 % of control and the T/C (dose: 500.0 micrograms/kg/injection, schedule: Q01DX009 (ip), vehicle: saline) was 107 % of control.
In the case of `O=C1CCC(N2C(=O)c3ccccc3C2=O)C(=O)N1` (stereo unspecified), the T/C [8] was 100 % of control, the T/C (dose: 25.0 mg/kg/injection, schedule: Q04DX003 (ip), vehicle: Klucel (hydroxypropylcellulose) (HPC)) was 99 % of control and the T/C [9] was 102 % of control. For the same compound, the T/C (dose: 50.0 mg/kg/injection, schedule: Q04DX003 (ip), vehicle: Klucel (hydroxypropylcellulose) (HPC)) was 106 % of control, the T/C [6] was 94 % of control and the T/C (dose: 100.0 mg/kg/injection, schedule: Q04DX003 (ip), vehicle: Klucel (hydroxypropylcellulose) (HPC)) was 94 % of control. The T/C [7] was 100 % of control, the T/C (dose: 200.0 mg/kg/injection, schedule: Q04DX003 (ip), vehicle: Klucel (hydroxypropylcellulose) (HPC)) was 99 % of control and the T/C (dose: 400.0 mg/kg/injection, schedule: Q01DX009 (ip), vehicle: Klucel (hydroxypropylcellulose) (HPC)) was 102 % of control. For the same compound, the T/C (dose: 400.0 mg/kg/injection, schedule: Q04DX003 (ip), vehicle: Klucel (hydroxypropylcellulose) (HPC)) was 94 % of control.
For `C[CH2][Pb]([CH2]C)([CH2]C)[N]1C(=O)c2ccccc2C1=O`, the T/C (dose: 1.56 mg/kg/injection, schedule: Q01DX009 (ip), vehicle: Klucel (hydroxypropylcellulose) (HPC)) was 112 % of control and the T/C (dose: 3.12 mg/kg/injection, schedule: Q01DX009 (ip), vehicle: Klucel (hydroxypropylcellulose) (HPC)) was 109 % of control.
For `COC(=O)/C(C#N)=N/O`, the T/C (dose: 9.37 mg/kg/injection, schedule: Q04DX003 (ip), vehicle: saline with Tween-80) was 95 % of control, the T/C (dose: 18.75 mg/kg/injection, schedule: Q04DX003 (ip), vehicle: saline with Tween-80) was 110 % of control and the T/C (dose: 37.5 mg/kg/injection, schedule: Q04DX003 (ip), vehicle: saline with Tween-80) was 100 % of control. For the same compound, the T/C (dose: 50.0 mg/kg/injection, schedule: Q01DX009 (ip), vehicle: saline) was 107 % of control, the T/C (dose: 75.0 mg/kg/injection, schedule: Q04DX003 (ip), vehicle: saline) was 91 % of control and the T/C [1] was 92 % of control.
With `CC1CN1P(=S)(Oc1ccccc1)N1CC1C` (stereo unspecified) the T/C [2] was 97 % of control, the T/C [3] was 95 % of control and the T/C [4] was 93 % of control and 97 % of control. The T/C [10] was 100 % of control.
`CCCN(C)N=Nc1ccccc1C(=O)O` was tested, and the T/C [11] was 100 % of control, the T/C [12] was 103 % of control and the T/C (dose: 3.13 mg/kg/injection, schedule: Q01DX009 (ip), vehicle: saline with Tween-80) was 111 % of control. For the same compound, the T/C (dose: 6.25 mg/kg/injection, schedule: Q01DX009 (ip), vehicle: Klucel (hydroxypropylcellulose) (HPC)) was 116 % of control, the T/C [13] was 101 % of control and 102 % of control and the T/C [14] was 110 % of control. The T/C (dose: 12.5 mg/kg/injection, schedule: Q01DX009 (ip), vehicle: saline with Tween-80) was 98 % of control and 102 % of control and 105 % of control, the T/C [8] was 104 % of control and the T/C [2] was 102 % of control and 107 % of control and 115 % of control. The T/C [9] was 107 % of control and the T/C [3] was 100 % of control.
`N#CCCNC(Cc1ccc(O)cc1)C(=O)O` (stereo unspecified) was tested, and the T/C [14] was 109 % of control, the T/C [8] was 100 % of control and the T/C [9] was 88 % of control. The T/C (dose: 56.25 mg/kg/injection, schedule: Q04DX003 (ip), vehicle: Klucel (hydroxypropylcellulose) (HPC)) was 95 % of control, the T/C (dose: 75.0 mg/kg/injection, schedule: Q01DX009 (ip), vehicle: Klucel (hydroxypropylcellulose) (HPC)) was 116 % of control and the T/C (dose: 112.5 mg/kg/injection, schedule: Q04DX003 (ip), vehicle: Klucel (hydroxypropylcellulose) (HPC)) was 105 % of control.
With `CCN(C(=O)Nc1cccc(Cl)c1)c1ccccc1` the T/C [4] was 102 % of control, the T/C [15] was 100 % of control and the T/C [10] was 110 % of control.
In the case of `C=CCSC(C)CC` (stereo unspecified), the T/C [2] was 108 % of control, the T/C [3] was 119 % of control and the T/C [4] was 107 % of control.
For `CNC(=O)CCCCC(=O)NC`, the T/C [3] was 102 % of control, the T/C [4] was 116 % of control and the T/C [15] was 124 % of control. For the same compound, the T/C [10] was 115 % of control.
For `ClCCN(CCCl)CCCN1c2ccccc2Sc2ccccc21`, the T/C (dose: 3.12 mg/kg/injection, schedule: Q04DX003 (ip), vehicle: saline with Tween-80) was 109 % of control and the T/C (dose: 6.25 mg/kg/injection, schedule: Q04DX003 (ip), vehicle: saline with Tween-80) was 97 % of control.
`ClC1=C(Cl)C(Cl)(Cl)C(Cl)(Cl)C1(Cl)Cl` was tested, and the T/C [6] was 103 % of control.
In the case of `COC(=O)C12Oc3ccc(-c4ccc5c(c4O)C(=O)C4=CCC(C)C(O)C4(C(=O)OC)O5)c(O)c3C(=O)C1=CCC(C)C2O` (stereo unspecified), the T/C (dose: 2.5 mg/kg/injection, schedule: Q01DX009 (ip), vehicle: saline with Tween-80) was 97 % of control, the T/C (dose: 5.0 mg/kg/injection, schedule: Q01DX009 (ip), vehicle: saline with Tween-80) was 86 % of control and 98 % of control and the T/C (dose: 10.0 mg/kg/injection, schedule: Q01DX009 (ip), vehicle: saline with Tween-80) was 88 % of control and 98 % of control.
`Cc1ccc[c]([Hg][Cl])c1N=Nc1ccccc1` was tested, and the T/C (dose: 0.39 mg/kg/injection, schedule: Q01DX009 (ip), vehicle: saline with Tween-80) was 101 % of control, the T/C (dose: 0.78 mg/kg/injection, schedule: Q01DX009 (ip), vehicle: saline with Tween-80) was 100 % of control and the T/C [11] was 97 % of control. The T/C [12] was 97 % of control and the T/C [13] was 94 % of control.
With `CC(=O)SCCC(=O)O` the T/C (dose: 0.75 mg/kg/injection, schedule: Q01DX009 (ip), vehicle: saline) was 107 % of control, the T/C (dose: 1.5 mg/kg/injection, schedule: Q01DX009 (ip), vehicle: saline) was 112 % of control and the T/C (dose: 3.0 mg/kg/injection, schedule: Q01DX009 (ip), vehicle: saline) was 114 % of control.

Reference: PubChem BioAssay AID192 (DTP/NCI, 2004)
